One series relates to Drosophila smn mutants. The series can be described thus: Rescue of Drosophila smn mutant phenotypes by K+ channel antagonists. The following applies: treatment with K+ channel antagonist; 4-(dimethylamino)pyridine data not shown.
The next series has as its system MS patients. The following applies: cited from earlier work.
Series [1] relates to Canton S (CS) control larvae.
Series [2] relates to canine hereditary motor neuron disease. The following applies: canine hereditary motor neuron disease (Pinter et al., 1997); cited from earlier work.
The test system of series [3] is Canton S (CS) control larvae. The series is described as follows: Muscle area measurement, control larvae cultured on 4-AP.
The test system of series [4] is Canton S (CS) control larvae. The source holds these as a separate data set.
The test system of series [5] is smn^x7/smn^x7 mutant larvae. The series can be described thus: Larval locomotion assay, smn mutant larvae. The class given is in vivo, Drosophila.
The next series relates to tetrodotoxin toxicity. The following applies: in vivo; cited from earlier work.
In series [6] the test system is smn^x7/smn^x7 mutant larvae. The series can be described thus: Spontaneous motor rhythm recording, smn mutant larvae. The class given is in vivo, Drosophila.
Series [7] concerns other sodium, calcium, and potassium conductances. The following applies: at concentration of 1 mM; cited from earlier work.
Series [8] concerns smn^x7/smn^x7 mutant larvae. The series can be described thus: Muscle area measurement, smn mutant larvae cultured on 4-AP.
Another series has as its system Shaker channels. The following applies: at concentration of 1 mM; cited from earlier work.
For a further series, the system named is wild-type larvae. The series can be described thus: Titration of 4-AP in larval media for tolerability.
Series [9] deals with Canton S (CS) control larvae. The source holds these as a separate data set.
The test system of series [10] is smn^x7/smn^x7 mutant larvae. The series is described as follows: NMJ electrophysiology (eEPSP), smn mutant larvae. In kind it is in vivo, Drosophila.
The mark [11] stands for this setting: CS control larvae treated with 2 mM 4-AP, ± SEM.
The mark [12] stands for this setting: control animals, 2 mM 4-AP, P<0.01.
Setting [13] is: smn mutants, 2 mM 4-AP, compared with 4-AP treated controls.
[14] abbreviates: smn^x7/smn^x7 larvae treated with 2 mM 4-AP, ± SEM.

The source of these data is US20150064234A1, “4-AMINOPYRIDINE AS A THERAPEUTIC AGENT FOR SPINAL MUSCULAR ATROPHY” (THE TRUSTEES OF COLUMBIA UNIVERSITY IN THE CITY OF NEW YORK, priority 2012, published 2015).

“Also recorded” adds a separate entry of the source.

`CN(C)c1ccncc1` [4-(dimethylamino) pyridine]: in the series on Drosophila smn mutants, the “effect on Drosophila smn mutant phenotypes” value is on record as “rescued”.

Regarding `Nc1ccncc1` [4-AP, 4-aminopyridine], in the series on MS patients (17 temperature-sensitive MS patients, 7.5 to 52.5 mg in one to three daily doses, 1 to 5 days, thirteen of 17), the “patients with clinically important motor and visual improvements” value is 76%. Besides, the “side effects” value in the series with MS patients (17 temperature-sensitive MS patients, 7.5 to 52.5 mg) was “No serious side effects”. Also, in the series on MS patients (average 8.53-hour treatment-observation period), the “mean duration of improvements for two consecutive doses” value is 7.07 h. Moreover, in the series with MS patients (long-term study (32 months)), the “initial responders with long-term benefits” value is given as 80-90%. Also, the “duration of improvements as share of treatment-observation period” value in the series on MS patients (two consecutive doses, average 8.53-hour period) is 83%. The Inter-spike interval in series [1] (setting [11]) worked out at 68.89 ± 4.23 ms; in [6] (setting [14]), 89.98 ± 4.98 ms. The “effect on motor rhythm” value in [1] (control animals, 2 mM 4-AP) was “inhibits”. The “decrease of rhythmic motor activity” value in series [1] (setting [12]) turned out to be 40%. Further, the “effect on muscle twitch tension” value in [2] is “can improve”. In addition, the “Muscle 6 area” value was 38.08 ± 3.49 ×10^3 × μm^2 in series [3] (CS control larvae treated with 2 mM 4-AP throughout larval period, ± SEM) and 29.60 ± 3.09 ×10^3 × μm^2 in series [8] (smn^x7/smn^x7 larvae treated with 2 mM 4-AP throughout larval period, ± SEM). In addition, the “effect on muscle size” value in [3] (control / wild-type animals, 2 mM 4-AP) is listed as “no effect; also recorded: does not alter; also recorded: did not affect”; in series [8] (smn mutants, 2 mM 4-AP), “increases; also recorded: significantly increased”. The “effect on Drosophila smn mutant phenotypes” value in the series on Drosophila smn mutants is on record as “positively benefitted; also recorded: rescued”. The eEPSP amplitude in [4] (setting [11]) is on record as 26.67 ± 2.91 mV; in series [10] (setting [14]), 32.40 ± 2.48 mV. Besides, in series [4] (control animals, 2 mM 4-AP, P<0.001), the “reduction of NMJ eEPSP amplitudes” value worked out at 21%. Besides, the increase of locomotion in series [5] (smn mutants grown on 2 mM 4-AP media, P<0.05) is reported as 55%. Besides, the “effect on locomotion” value in series [5] (setting [13]) is recorded as “corrects; also recorded: significantly increased”. The Locomotion is 2.65 ± 0.10 cm/min in [5] (setting [14]) and 3.06 ± 0.40 cm/min in series [9] (setting [11]). Also, the “effect on tetrodotoxin toxicity” value with tetrodotoxin toxicity is recorded as “reverse tetrodotoxin toxicity”. Besides, in [6] (smn mutants grown on 2 mM 4-AP media, p<0.001), the “remaining increase in inter-spike interval above controls treated with 4-AP” value amounted to 31%. Moreover, the “effect on defects in motor rhythm” value in series [6] (smn mutants, 2 mM 4-AP) is given as “substantially improved; also recorded: substantially corrects; also recorded: fully corrected”. The “effect on other sodium, calcium, and potassium conductances” value in [7] is on record as “without significant effect”. Further, the “increase of muscle surface area compared to untreated smn mutants” value in series [8] (smn mutants grown on 2 mM 4-AP media, P<0.001) is given as 66%. Also, the “inhibition of Shaker channels” value in the series with Shaker channels was “selectively and reversibly inhibits”. Also, the “maximum dosage tolerated without lethality” value in the series with wild-type larvae (added to larval media, wild-type larvae) was 2 mM. Also, the “toxicity at maximum tolerated dose” value in the series with wild-type larvae (control animals, 2 mM throughout larval period) is “mild systemic toxicity”. In series [9] (setting [12]), the “reduction of larval locomotion” value was found to be 35%. The “reduction of increased NMJ EPSP amplitude” value in series [10] (smn mutants treated with 2 mM 4-AP, P<0.001) is 27%. Also, in series [10] (setting [13]), the “effect on NMJ neurotransmitter release / eEPSP amplitude” value was “corrects; also recorded: fully corrected”.
